What all share (assay): HDAC biochemical activity measurement (fluorescent substrate deacetylation)
For one assay, the target named is T1, HDAC11 (Homo sapiens, UniProt Q96DB2).
T1 sequence (Q96DB2 1-347): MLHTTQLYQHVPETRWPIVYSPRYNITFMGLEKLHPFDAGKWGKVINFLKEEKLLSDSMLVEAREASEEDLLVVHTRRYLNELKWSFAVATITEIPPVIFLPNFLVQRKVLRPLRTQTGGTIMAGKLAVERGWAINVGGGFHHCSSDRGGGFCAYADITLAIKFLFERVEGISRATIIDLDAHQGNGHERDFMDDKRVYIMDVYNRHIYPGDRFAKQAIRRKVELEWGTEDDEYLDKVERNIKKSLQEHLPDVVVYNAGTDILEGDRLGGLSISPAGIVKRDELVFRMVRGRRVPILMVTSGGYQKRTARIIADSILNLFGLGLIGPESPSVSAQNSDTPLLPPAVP

In another assay the target is T2, HDAC8 (Homo sapiens, UniProt Q9BY41).
T2 sequence (Q9BY41 1-377): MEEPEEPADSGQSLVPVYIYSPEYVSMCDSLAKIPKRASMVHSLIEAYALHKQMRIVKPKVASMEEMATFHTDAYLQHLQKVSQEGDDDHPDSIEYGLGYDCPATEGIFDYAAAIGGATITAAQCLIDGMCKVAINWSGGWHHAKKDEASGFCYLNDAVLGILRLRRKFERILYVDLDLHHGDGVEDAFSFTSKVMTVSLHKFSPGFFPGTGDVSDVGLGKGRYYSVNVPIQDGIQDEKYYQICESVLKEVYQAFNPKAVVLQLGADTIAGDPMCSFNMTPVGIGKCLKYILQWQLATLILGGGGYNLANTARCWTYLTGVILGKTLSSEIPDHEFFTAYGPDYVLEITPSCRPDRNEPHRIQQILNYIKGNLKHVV
To be noted: 37° C. 30 minutes.

The next assay addresses HDAC3 (Homo sapiens, UniProt O15379).
A further assay concerns the target T3, HDAC7 (Homo sapiens, UniProt Q8WUI4).
T3 sequence (Q8WUI4 1-952): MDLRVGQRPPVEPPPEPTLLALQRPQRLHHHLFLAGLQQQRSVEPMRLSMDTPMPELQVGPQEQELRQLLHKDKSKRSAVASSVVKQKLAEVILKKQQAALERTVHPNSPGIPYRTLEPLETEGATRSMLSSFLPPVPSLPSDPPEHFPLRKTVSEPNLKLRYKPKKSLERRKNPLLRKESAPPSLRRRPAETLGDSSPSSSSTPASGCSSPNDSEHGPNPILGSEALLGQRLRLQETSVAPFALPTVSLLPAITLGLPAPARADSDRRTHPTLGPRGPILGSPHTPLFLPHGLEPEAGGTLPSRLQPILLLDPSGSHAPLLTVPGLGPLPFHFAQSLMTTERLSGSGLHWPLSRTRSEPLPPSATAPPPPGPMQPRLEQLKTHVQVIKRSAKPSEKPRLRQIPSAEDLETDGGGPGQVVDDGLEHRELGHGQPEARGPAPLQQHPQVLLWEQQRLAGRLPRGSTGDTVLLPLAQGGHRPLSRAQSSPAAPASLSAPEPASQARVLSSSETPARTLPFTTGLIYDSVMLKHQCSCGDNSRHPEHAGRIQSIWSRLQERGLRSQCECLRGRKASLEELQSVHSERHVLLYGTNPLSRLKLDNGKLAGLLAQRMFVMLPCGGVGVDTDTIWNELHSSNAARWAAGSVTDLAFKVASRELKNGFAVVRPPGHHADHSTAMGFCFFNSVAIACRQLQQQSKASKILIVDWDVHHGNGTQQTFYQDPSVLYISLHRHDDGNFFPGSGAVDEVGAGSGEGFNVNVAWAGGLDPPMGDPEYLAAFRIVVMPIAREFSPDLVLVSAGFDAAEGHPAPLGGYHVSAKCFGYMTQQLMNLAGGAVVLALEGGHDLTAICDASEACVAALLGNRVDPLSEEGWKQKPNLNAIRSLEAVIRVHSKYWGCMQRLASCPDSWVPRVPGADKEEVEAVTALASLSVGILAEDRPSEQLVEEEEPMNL
To be noted: HDAC7; 37° C. 30 minutes.

For the next assay, the target named is HDAC1 (Homo sapiens, UniProt Q13547).
The mark [1] stands for this setting: HDAC1, 37° C. 30 minutes, read-out: IC50 HDAC1.
[2] abbreviates: read-out: IC50 HDAC11, HDAC11, 37° C. 30 minutes.
Where [3] appears, read: read-out: IC50 HDAC3, HDAC3, 37° C. 30 minutes.
The mark [4] stands for this setting: Table 2, read-out: IC50 HDAC1, a (compounds of the present invention).
[5] abbreviates: Table 3, read-out: IC50 HDAC1, D (non-substituent).
Setting [6] is: Table 3, column C, read-out: IC50 HDAC1, C (six-membered ring with substituents).

Structures are written as SMILES. pIC50: −log10 of the molar value. Read-outs that look alike come from different tables or passages of the source. A value given as a limit tells only on which side of the number the result lay.

These results are taken from patent publication US10065990B2, “Cyclic peptide compound, and preparation method, pharmaceutical composition and use thereof” (HANGZHOU GUANYU BIO-MEDICAL CO., LTD, priority 2013, dated 2018).
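Wherever IC50 HDAC1 is given: fluorogenic acetyl-lysine substrate (20 µM) deacetylated by HDAC1, then developer releases fluorophore read at 360 nm excitation and 460 nm emission, inhibitor incubated 30 min at 37 °C.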
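Wherever IC50 HDAC1, C (six-membered ring with substituents) is given: fluorogenic acetyl-lysine substrate (20 µM) deacetylated by HDAC1, then developer releases fluorophore read at 360 nm excitation and 460 nm emission, inhibitor incubated 30 min at 37 °C.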
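Wherever IC50 HDAC1, D (non-substituent) is given: fluorogenic acetyl-lysine substrate (20 µM) deacetylated by HDAC1, then developer releases fluorophore read at 360 nm excitation and 460 nm emission, inhibitor incubated 30 min at 37 °C.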
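Wherever IC50 HDAC1, a (compounds of the present invention) is given: fluorogenic acetyl-lysine substrate (20 µM) deacetylated by HDAC1, then developer releases fluorophore read at 360 nm excitation and 460 nm emission, inhibitor incubated 30 min at 37 °C.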
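Wherever IC50 HDAC7 is given: fluorogenic deacetylation assay using acetyl-lysine substrate at 20 µM, enzyme and compound incubated 30 min at 37 °C, then developer added, fluorescence read at 360/460 nm.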

Sequence of HDAC1 (Q13547 whole entry, species assumed): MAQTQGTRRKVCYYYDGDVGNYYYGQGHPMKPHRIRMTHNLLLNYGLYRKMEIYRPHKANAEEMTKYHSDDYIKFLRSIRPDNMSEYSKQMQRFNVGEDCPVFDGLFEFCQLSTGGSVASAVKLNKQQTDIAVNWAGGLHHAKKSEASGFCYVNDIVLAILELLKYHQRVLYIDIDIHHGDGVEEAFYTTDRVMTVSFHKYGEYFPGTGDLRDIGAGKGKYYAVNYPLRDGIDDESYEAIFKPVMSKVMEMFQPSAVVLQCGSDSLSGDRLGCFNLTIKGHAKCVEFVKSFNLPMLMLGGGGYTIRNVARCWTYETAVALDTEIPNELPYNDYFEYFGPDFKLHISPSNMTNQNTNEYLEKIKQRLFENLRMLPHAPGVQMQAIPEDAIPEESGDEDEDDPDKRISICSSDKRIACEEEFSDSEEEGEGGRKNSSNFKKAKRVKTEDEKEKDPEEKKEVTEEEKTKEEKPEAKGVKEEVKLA
Sequence of HDAC3 (O15379 whole entry, species assumed): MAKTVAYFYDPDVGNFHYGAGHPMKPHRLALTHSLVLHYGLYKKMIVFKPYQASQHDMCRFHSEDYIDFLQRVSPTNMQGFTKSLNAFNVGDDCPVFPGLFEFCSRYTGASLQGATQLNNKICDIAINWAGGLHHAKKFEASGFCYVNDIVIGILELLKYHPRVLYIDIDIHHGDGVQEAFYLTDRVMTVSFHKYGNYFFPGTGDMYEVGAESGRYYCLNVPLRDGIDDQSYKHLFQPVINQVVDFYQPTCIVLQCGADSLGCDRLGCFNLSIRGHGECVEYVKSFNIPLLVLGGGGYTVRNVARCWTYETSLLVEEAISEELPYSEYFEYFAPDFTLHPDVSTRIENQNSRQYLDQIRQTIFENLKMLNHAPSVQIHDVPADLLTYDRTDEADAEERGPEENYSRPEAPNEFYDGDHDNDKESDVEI
Sequence of HDAC3 (Q9Y618 395-489 partner limits assumed, species assumed): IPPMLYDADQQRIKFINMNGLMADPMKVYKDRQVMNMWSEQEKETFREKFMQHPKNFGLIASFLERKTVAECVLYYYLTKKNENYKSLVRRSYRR
Protocol for HDAC11: (§1) The chemical activity of the compound is determined according to the degree of deacetylation inhibition of the HDAC enzyme. This experiment measured the degree of deacetylation related to tumor proliferation and metastasis of HDAC1, HDAC2, HDAC3, HDAC8, HDAC11 five subtypes HDAC enzymes. After the substrate containing an acetylated lysine side chain and HDAC enzyme are labeled with a fluorescent label, the fluorescent substrate is de acetyl. The fluorescent labeled substrate is cleaved by the enzyme, and the fluorescent substance is released, which generates 460 nm emission light under the excitation of 360 nm light.
(§2) HDAC substrate was diluted with reaction buffer to 200M (reaction concentration of 20M), the HDAC enzyme was diluted to the appropriate concentration, then added different concentrations of the test compounds and acted at 37° C. 30 minutes, and then added the same volume of 2-times concentration substrate developing solution (developer), incubated at room temperature for 15 minutes.
Protocol for HDAC3: as §1, §2
Protocol for HDAC8: as §1, §2

The term pIC50 denotes the IC50 on a negative log10 scale, so that one unit is a factor of ten. For the compound `C/C=C1\NC(=O)c2cccc(n2)CCNC(=O)C[C@@H](/C=C/CCSC(C)=O)OC(=O)[C@H](C(C)C)NC1=O` [Example 26], the pIC50 is 7.03 on HDAC11, 7.19 against HDAC8, 7.34 at HDAC3 and 7.04 on HDAC1 (setting [1]). For the same compound, the “IC50 HDAC7” value against HDAC7 was “no activity”.

Regarding `CCCCCCCC(=O)SCC/C=C/[C@@H]1CC(=O)NCc2cccc(n2)C(=O)NCC(=O)N[C@@H](C(C)C)C(=O)O1` [Compound 246], the pIC50 at HDAC11 (setting [2]) was 6.63; against HDAC8 it was 6.88; on HDAC3 (setting [3]) it was 7.06; on HDAC1 (setting [1]) it was 7.05; on HDAC1 (setting [4]), over 7.00. The “IC50 HDAC7” value against HDAC7 is “no activity”.

`C/C=C1\NC(=O)c2cccc(n2)CCNC(=O)C[C@@H](/C=C/CCS)OC(=O)[C@H](C(C)C)NC1=O` [Compound 146]: the pIC50 against HDAC11 was 7.01; against HDAC8, 7.37; on HDAC3 it was 7.55; at HDAC1 (setting [1]), 7.14. Moreover, on HDAC7, the “IC50 HDAC7” value is given as “no activity”.

For the compound `C/C=C1\NC(=O)c2cccc(n2)NC(=O)C[C@@H](/C=C/CCSC(C)=O)OC(=O)[C@H](C(C)C)NC1=O` [Example 22], the pIC50 on HDAC11 was 7.01; on HDAC8, 7.33; on HDAC3, 7.21; on HDAC1 (setting [1]) it was 7.03. Also, on HDAC7, the “IC50 HDAC7” value is on record as “no activity”.

In the case of `C/C=C1\NC(=O)c2cccc(n2)CNC(=O)C[C@@H](/C=C/CCSC(=O)CCCCCCC)OC(=O)[C@H](C(C)C)NC1=O` [Compound 1], the pIC50 on HDAC11 (setting [2]) was 6.42; on HDAC8, 7.52; at HDAC3 (setting [3]) it was 7.46; on HDAC1 (setting [1]), 7.39; on HDAC1 (setting [4]), over 7.30; at HDAC1 (setting [5]), 7.39. For the same compound, on HDAC7, the “IC50 HDAC7” value is recorded as “no activity”.

As for `C/C=C1\NC(=O)c2ccc(F)c(n2)CNC(=O)C[C@@H](/C=C/CCSC(=O)CCCCCCC)OC(=O)[C@H](Cc2ccccc2)NC1=O` [Example 71], the pIC50 was 7.02 on HDAC11, 7.39 at HDAC8, 7.47 on HDAC3 and 7.29 at HDAC1 (setting [1]). The “IC50 HDAC7” value against HDAC7 is “no activity”.

`C/C=C1\NC(=O)c2nc(ccc2F)CNC(=O)C[C@@H](/C=C/CCSC(=O)CCCCCCC)OC(=O)[C@H](C)NC1=O` [Example 60]: the pIC50 against HDAC11 was 7.06; at HDAC8, 7.28; against HDAC3 it was 7.80; at HDAC1 (setting [1]) it was 7.09. The “IC50 HDAC7” value against HDAC7 is on record as “no activity”.

On to `C/C=C1\NC(=O)c2cccc(n2)CNC(=O)C[C@@H](/C=C/CCSC(=O)CC)OC(=O)[C@H](C(C)C)NC1=O` [Compound 6], for which the pIC50 is 6.87 at HDAC11 (setting [2]); 7.20 on HDAC8; 7.21 at HDAC3 (setting [3]); 7.12 on HDAC1 (setting [1]); 7.12 on HDAC1 (setting [5]). The “IC50 HDAC7” value against HDAC7 is given as “no activity”.

Take `C/C=C1\NC(=O)c2nc(ccc2SCCC)CNC(=O)C[C@@H](/C=C/CCSC(=O)CCCCCCC)OC(=O)[C@H](CC)NC1=O` [Compound 174]: the pIC50 against HDAC11 was 7.01; on HDAC8, 7.68; against HDAC3, 7.59; at HDAC1 (setting [1]), 7.08. The “IC50 HDAC7” value at HDAC7 is “no activity”.

As to `C/C=C1\NC(=O)c2cc(F)cc(n2)CNC(=O)C[C@@H](/C=C/CCSC(=O)CC)OC(=O)[C@H](C(C)C)NC1=O` [Compound 46], the pIC50 is 7.09 on HDAC11 (setting [2]); 7.46 at HDAC8; 7.60 at HDAC3 (setting [3]); 7.66 at HDAC1 (setting [1]); 7.66 at HDAC1 (setting [6]). Besides, the “IC50 HDAC7” value against HDAC7 is given as “no activity”.

As for `CC(=O)SCC/C=C/[C@@H]1CC(=O)NCc2cccc(n2)C(=O)NC(=C(C)C)C(=O)N[C@@H](C(C)C)C(=O)O1` [Compound 20], the pIC50 is 7.06 at HDAC11 (setting [2]); 7.19 against HDAC8; 7.35 on HDAC3 (setting [3]); 6.74 on HDAC1 (setting [1]); 6.74 at HDAC1 (setting [5]). For the same compound, the “IC50 HDAC7” value against HDAC7 is on record as “no activity”.

With `C/C=C1\NC(=O)c2cc(F)cc(n2)CNC(=O)C[C@@H](/C=C/CCSC=O)OC(=O)[C@H](C(C)C)NC1=O` [Compound 52], the pIC50 at HDAC11 (setting [2]) is 6.97; against HDAC8 it was 7.28; on HDAC3 (setting [3]), 7.42; on HDAC1 (setting [1]), 7.35; at HDAC1 (setting [6]) it was 7.35. The “IC50 HDAC7” value on HDAC7 is listed as “no activity”.

Regarding `C/C=C1\NC(=O)c2cccc(n2)CNC(=O)C[C@@H](/C=C/CCSC(C)=O)OC(=O)[C@H](CCCCNC(=O)OCC2c3ccccc3-c3ccccc32)NC1=O` [Compound 16], the pIC50 at HDAC11 (setting [2]) was 7.02; against HDAC8, 7.21; on HDAC3 (setting [3]), 7.31; at HDAC1 (setting [1]) it was 6.74; on HDAC1 (setting [5]), 6.74. Also, the “IC50 HDAC7” value on HDAC7 is “no activity”.

As for `C/C=C1\NC(=O)c2cc(SCCC)cc(n2)CNC(=O)C[C@@H](/C=C/CCSC(=O)CCCCCCC)OC(=O)[C@H](CC)NC1=O` [Compound 175], the pIC50 on HDAC11 is 7.26; against HDAC8, 7.16; at HDAC3 it was 7.96; on HDAC1 (setting [1]), 7.39. For the same compound, on HDAC7, the “IC50 HDAC7” value is “no activity”.

As for `C/C=C1\NC(=O)c2cccc(n2)CNC(=O)C[C@@H](/C=C/CCSC(=O)CCCCCCC)OC(=O)[C@H](CSCC)NC1=O` [Compound 242], the pIC50 is 7.17 against HDAC11; 7.26 against HDAC8; 7.49 against HDAC3; 7.72 on HDAC1 (setting [1]); over 7.70 at HDAC1 (setting [4]). For the same compound, at HDAC7, the “IC50 HDAC7” value is listed as “no activity”.

Regarding `C/C=C1\NC(=O)c2cccc(n2)CNC(=O)C[C@@H](/C=C/CCS)OC(=O)[C@@H](C)NC1=O` [Compound 145], the pIC50 at HDAC11 is 7.08; against HDAC8, 7.54; at HDAC3 it was 7.59; at HDAC1 (setting [1]), 7.29. The “IC50 HDAC7” value against HDAC7 was “no activity”.

With `C/C=C1\NC(=O)c2cccc(n2)CNC(=O)C[C@@H](/C=C/CCSC(=O)CCCC)OC(=O)[C@H](C(C)C)NC1=O` [Compound 4], the pIC50 on HDAC11 (setting [2]) is 6.70; against HDAC8, 6.79; on HDAC3 (setting [3]) it was 6.82; at HDAC1 (setting [1]), 6.74; at HDAC1 (setting [5]) it was 6.74. Moreover, the “IC50 HDAC7” value at HDAC7 is “no activity”.

Consider `C/C=C1\NC(=O)c2nc(ccc2F)CNC(=O)C[C@@H](/C=C/CCSC(=O)CCCCCC)OC(=O)[C@H](C(C)C)NC1=O` [Compound 33], for which the pIC50 on HDAC11 (setting [2]) was 7.05; on HDAC8, 7.23; on HDAC3 (setting [3]) it was 7.44; on HDAC1 (setting [1]), 7.64; on HDAC1 (setting [6]) it was 7.64. In addition, at HDAC7, the “IC50 HDAC7” value is on record as “no activity”.

As for `C/C=C1\NC(=O)c2ccc(F)c(n2)CNC(=O)C[C@@H](/C=C/CCSC(=O)CC)OC(=O)[C@H](C(C)C)NC1=O` [Example 47], the pIC50 at HDAC11 was 7.08; at HDAC3, 7.41; at HDAC1 (setting [1]), 7.15. For the same compound, the “IC50 HDAC7” value at HDAC7 is “no activity”.
